Data from paper PMC4849045, “Hepatoprotective Limonoids from Andiroba (Carapa guianensis)” (International Journal of Molecular Sciences, 2016).
Where two headings read alike, the source gives them in different places.

Key:
[1] = system: LPS-activated NO production in mouse peritoneal macrophages; assay: LPS-induced NO production in mouse peritoneal macrophages; type: cell-based; conditions: Peritoneal macrophage; for IC50: read-out: IC50, inhibition of LPS-activated NO production; for inhibition at 3 µM / inhibition at 10 µM / inhibition at 30 µM / inhibition at 100 µM: read-out: Inhibition (%) of LPS-activated NO production
Protocol: The effects of limonoids (1–17) on NO production were examined to provide an estimation of macrophage activation levels in LPS-treated mouse peritoneal macrophages.
Assay for NO production in TGC-induced mouse peritoneal macrophages was performed as described previously. N^G-Monomethyl-L-arginine (L-NMMA) and caffeic acid phenethyl ester (CAPE) were used as reference compounds [33, 36].

[2] = system: primary cultured mouse hepatocytes; assay: D-GalN-induced cytotoxicity in primary cultured mouse hepatocytes (MTT assay); conditions: Hepatocyte, read-out: Inhibition (%) of D-GalN-induced cytotoxicity
Protocol: Assay for the D-GalN-induced cytotoxicity in primary cultured mouse hepatocytes was performed as described previously [33, 35, 36].

L929 cells = assay: TNF-α-induced cytotoxicity in L929 cells (MTT assay); type: cell-based; conditions: Mus musculus, 1 ng/mL TNF-α, 44 h; for IC50: L929 cells, read-out: IC50, inhibition of TNF-α-induced decrease in cell viability
Protocol: The effects of the limonoids (1–17) on the sensitivity of hepatocytes to TNF-α were assessed by measuring TNF-α-induced decreases in the viability of L929 cells, a TNF-α-sensitive cell line, by using the MTT assay. In the absence of a test sample, the cells incubated with 1 ng/mL TNF-α for 44 h were compared with those not incubated with TNF-α.
Assay for the TNF-α-induced cytotoxicity in L929 cells was performed as described previously. Silybin was used as a reference compound [36].

[3] = Cell viability of LPS-treated mouse peritoneal macrophages (MTT assay); type: cell-based; conditions: mean ± S.E.M. (n = 4), read-out: cell viability (%) in MTT assay (values in parentheses) (converted); for viability at 100 µM: # = cytotoxic effects were observed
[4] = L929, mean ± S.E.M. (n = 4), read-out: Inhibition (%) of TNF-α-induced cytotoxicity
[5] = Mus musculus, 3 µM, mean ± S.E.M. (n = 4)
[6] = Mus musculus, 10 µM, mean ± S.E.M. (n = 4)
[7] = Mus musculus, 30 µM, mean ± S.E.M. (n = 4)
[8] = Mus musculus, 100 µM, mean ± S.E.M. (n = 4)
[9] = LPS-treated TGC-induced mouse peritoneal macrophages

Row | Compound | IC50 ([1]; Mus musculus) [µM] | inhibition at 3 µM ([1]; Mus musculus) [%] | inhibition at 10 µM ([1]; Mus musculus) [%] | inhibition at 30 µM ([1]; Mus musculus) [%] | inhibition at 100 µM ([1]; Mus musculus) [%] | inhibition at 3 µM [2] [%] | inhibition at 10 µM [2] [%] | inhibition at 30 µM [2] [%] | inhibition at 100 µM [2] [%] | inhibition at 3 µM (L929 cells; [4]) [%] | inhibition at 10 µM (L929 cells; [4]) [%] | inhibition at 30 µM (L929 cells; [4]) [%] | inhibition at 3 µM [1, 5] [%] | inhibition at 10 µM [1, 6] [%] | inhibition at 30 µM [1, 7] [%] | inhibition at 100 µM [1, 8] [%] | viability at 3 µM [3, 9] [%] | viability at 10 µM [3, 9] [%] | viability at 30 µM [3, 9] [%] | viability at 100 µM [3, 9] [%] | further results
1 | CCC(=O)OC1C2(O)C(OC(C)=O)C3(C)CC24OC2(C)OC15C1CC(=O)OC(c6ccoc6)C1(C)C(OC(C)=O)C(O)C5(O2)C4(C)C3CC(=O)OC (stereo not shown) [compound 13, Carapanolide M] | 41.6 | -1.1 ± 2.7 | 3.2 ± 2.8 | 30.3 ± 3.1 | 85.1 ± 1.5 | -7 ± 0.5 | -7.3 ± 0.7 | 1 ± 0.4 | -9.9 ± 1 | -1.5 ± 7.1 | 7 ± 4.4 | -5.1 ± 6.2 |  |  |  |  |  |  |  |  | viability at 3 µM [3]: 99.2%; viability at 10 µM [3]: 95.1%; viability at 30 µM [3]: 94.2%; viability at 100 µM [3]: 112%
2 | CCC(C)C(=O)OC1C2(OC(C)=O)CC3(O)C4=CC(=O)OC(c5ccoc5)C4(C)CCC3C(C)(C2=O)C(CC(=O)OC)C1(C)C (stereo not shown) [compound 10, Carapanolide C] |  |  |  |  |  | 8 ± 4.3 | 3.4 ± 4.2 | 6.7 ± 2.1 | -7.7 ± 4.4 | 14.2 ± 3.2 | 27.7 ± 4.3 | 54.5 ± 5.5 | 4.2 ± 8.8 | 20.8 ± 5 | 20.2 ± 4.9 | 13.2 ± 1.9 | 96 | 98.9 | 91.8 | 80 | IC50 ([1]; mouse peritoneal macrophages): > 100 µM; inhibition at 1 µM (L929 cells; L929, 1 µM, mean ± S.E.M. (n = 4), read-out: Inhibition (%) of TNF-α-induced cytotoxicity): 4.9 ± 2.1%; IC50 (L929 cells): 27 µM
3 | CCC(=O)OC1C2(O)C(OC(C)=O)C3(C)CC24OC2(C)OC15C1CC(=O)OC(c6ccoc6)C1(C)C(OC(C)=O)CC5(O2)C4(C)C3C(OC(C)=O)C(=O)OC (stereo not shown) [compound 14, Carapanolide Q] | 38 | 1.9 ± 0.7 | 14.4 ± 2.2 | 44.3 ± 1.1 | 75.3 ± 3.5 | 2.7 ± 1.9 | -3.5 ± 2.9 | -2.5 ± 2.1 | -6.2 ± 1.7 | 8.6 ± 4.4 | 1.3 ± 4.2 | 9.2 ± 2.5 |  |  |  |  | 99.8 | 96.3 | 95.5 | 116 | 
4 | COC(=O)CC1C(C)C(=O)C2(CC3(O)C4CC(=O)OC(c5ccoc5)C4(C)CCC3(O)O2)C(OC(=O)C(C)C)C1(C)C (stereo not shown) [compound 17, carapanolide A] |  |  |  |  |  | -6.8 ± 1.2 | -8.3 ± 0.7 | -4.5 ± 0.6 | -7 ± 0.6 | 8.8 ± 6.5 | 21.5 ± 5.5 | 58.2 ± 4.7 | -0.6 ± 2.1 | 1.2 ± 2 | 41.1 ± 1 | 4.9 ± 1.8 | 103 | 104 | 110 | 91.3 | IC50 ([1]; mouse peritoneal macrophages): > 100 µM; IC50 (L929 cells): 25.3 µM
